Data published in patent publication US10961231B2, “NTCP inhibitors” (National Institute of Biological Sciences, Beijing, priority 2018, dated 2021).

biological target: T1, NTCP (Homo sapiens, UniProt Q14973); test: [3H]-TCA uptake assay (NTCP inhibition); assay type: cell-based; conditions: IC50, given as a range, marked * (asterisk not explained)
T1 sequence (Q14973 1-349): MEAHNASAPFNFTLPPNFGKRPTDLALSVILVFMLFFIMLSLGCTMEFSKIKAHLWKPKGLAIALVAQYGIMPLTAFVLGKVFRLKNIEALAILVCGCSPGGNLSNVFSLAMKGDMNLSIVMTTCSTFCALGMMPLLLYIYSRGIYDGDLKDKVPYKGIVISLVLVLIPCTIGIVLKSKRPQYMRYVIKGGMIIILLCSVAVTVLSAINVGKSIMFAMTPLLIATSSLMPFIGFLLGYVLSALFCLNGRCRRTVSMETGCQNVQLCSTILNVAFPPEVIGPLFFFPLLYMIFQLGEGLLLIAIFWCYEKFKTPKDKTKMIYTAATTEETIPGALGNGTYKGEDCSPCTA
Summary of the method: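 Read-out is liquid scintillation counting of Triton X-100 lysates after 15 min, 37° C uptake of 1 μM [3H]-taurocholate in Na+ Ringer's buffer (145 mM Na). Beforehand, PTH and HepG2-NTCP cells had 24 h in PMM for NTCP induction and 2 h of compound or DMSO treatment.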

Row | SMILES | IC50 [nM]
1 | CCC1NC(=O)C(C2OC(Sc3cccc(OCc4cccs4)c3)CC2C)N(C)C(=O)C(C(C)C)N(C)C(=O)C(CC(C)C)N(C)C(=O)C(CC(C)C)N(C)C(=O)C(C)NC(=O)C(C)NC(=O)C(CC(C)C)N(C)C(=O)C(C(C)C)NC(=O)C(CC(C)C)N(C)C(=O)CN(C)C1=O (stereo not shown) [Compound 69] | 1000 to 100000
2 | CCC1NC(=O)C(C2OC(Oc3cccc(OCC4CCN(C)CC4)c3)CC2C)N(C)C(=O)C(C(C)C)N(C)C(=O)C(CC(C)C)N(C)C(=O)C(CC(C)C)N(C)C(=O)C(C)NC(=O)C(C)NC(=O)C(CC(C)C)N(C)C(=O)C(C(C)C)NC(=O)C(CC(C)C)N(C)C(=O)CN(C)C1=O (stereo not shown) [Compound 72-o] | 1000 to 100000
3 | CCC1NC(=O)C(C2OC(Sc3cccc(OCC4CCN(C)CC4)c3)CC2C)N(C)C(=O)C(C(C)C)N(C)C(=O)C(CC(C)C)N(C)C(=O)C(CC(C)C)N(C)C(=O)C(C)NC(=O)C(C)NC(=O)C(CC(C)C)N(C)C(=O)C(C(C)C)NC(=O)C(CC(C)C)N(C)C(=O)CN(C)C1=O (stereo not shown) [Compound 72] | 1000 to 100000
4 | CCC1NC(=O)C(C2OC(SCc3ccccc3)CC2C)N(C)C(=O)C(C(C)C)N(C)C(=O)C(CC(C)C)N(C)C(=O)C(CC(C)C)N(C)C(=O)C(C)NC(=O)C(C)NC(=O)C(CC(C)C)N(C)C(=O)C(C(C)C)NC(=O)C(CC(C)C)N(C)C(=O)CN(C)C1=O (stereo not shown) [Compound 74A-s] | 1000 to 100000
5 | CCC1NC(=O)C(C2OC(SCc3cccc(S(=O)(=O)OCC(C)C)c3)CC2C)N(C)C(=O)C(C(C)C)N(C)C(=O)C(CC(C)C)N(C)C(=O)C(CC(C)C)N(C)C(=O)C(C)NC(=O)C(C)NC(=O)C(CC(C)C)N(C)C(=O)C(C(C)C)NC(=O)C(CC(C)C)N(C)C(=O)CN(C)C1=O (stereo not shown) [Compound 75A-s] | 1000 to 100000
6 | CCC1NC(=O)C(C2OC(SCc3cccc(S(=O)(=O)NCC(C)C)c3)CC2C)N(C)C(=O)C(C(C)C)N(C)C(=O)C(CC(C)C)N(C)C(=O)C(CC(C)C)N(C)C(=O)C(C)NC(=O)C(C)NC(=O)C(CC(C)C)N(C)C(=O)C(C(C)C)NC(=O)C(CC(C)C)N(C)C(=O)CN(C)C1=O (stereo not shown) [Compound 76A-s] | 1000 to 100000
7 | CCC1NC(=O)C(C2OC(SCc3ccc(-n4cccn4)cc3)CC2C)N(C)C(=O)C(C(C)C)N(C)C(=O)C(CC(C)C)N(C)C(=O)C(CC(C)C)N(C)C(=O)C(C)NC(=O)C(C)NC(=O)C(CC(C)C)N(C)C(=O)C(C(C)C)NC(=O)C(CC(C)C)N(C)C(=O)CN(C)C1=O (stereo not shown) [Compound 77A-s] | 1000 to 100000
8 | CCC1NC(=O)C(C2OC(SC(C)c3ccccc3)CC2C)N(C)C(=O)C(C(C)C)N(C)C(=O)C(CC(C)C)N(C)C(=O)C(CC(C)C)N(C)C(=O)C(C)NC(=O)C(C)NC(=O)C(CC(C)C)N(C)C(=O)C(C(C)C)NC(=O)C(CC(C)C)N(C)C(=O)CN(C)C1=O (stereo not shown) [Compound 78A-s] | 1000 to 100000
9 | CCC1NC(=O)C(C2OC(SC(c3ccccc3)c3ccccc3)CC2C)N(C)C(=O)C(C(C)C)N(C)C(=O)C(CC(C)C)N(C)C(=O)C(CC(C)C)N(C)C(=O)C(C)NC(=O)C(C)NC(=O)C(CC(C)C)N(C)C(=O)C(C(C)C)NC(=O)C(CC(C)C)N(C)C(=O)CN(C)C1=O (stereo not shown) [Compound 80A-s] | 1000 to 100000
10 | CCC1NC(=O)C(C2OC(SCc3cccc(OC)c3)CC2C)N(C)C(=O)C(C(C)C)N(C)C(=O)C(CC(C)C)N(C)C(=O)C(CC(C)C)N(C)C(=O)C(C)NC(=O)C(C)NC(=O)C(CC(C)C)N(C)C(=O)C(C(C)C)NC(=O)C(CC(C)C)N(C)C(=O)CN(C)C1=O (stereo not shown) [Compound 81A-s] | 1000 to 100000
11 | CCC1NC(=O)C(C2OC(SCc3ccccc3OC)CC2C)N(C)C(=O)C(C(C)C)N(C)C(=O)C(CC(C)C)N(C)C(=O)C(CC(C)C)N(C)C(=O)C(C)NC(=O)C(C)NC(=O)C(CC(C)C)N(C)C(=O)C(C(C)C)NC(=O)C(CC(C)C)N(C)C(=O)CN(C)C1=O (stereo not shown) [Compound 82A-s] | 1000 to 100000
12 | CCC1NC(=O)C(C2OC(SCc3ccc(OC)cc3)CC2C)N(C)C(=O)C(C(C)C)N(C)C(=O)C(CC(C)C)N(C)C(=O)C(CC(C)C)N(C)C(=O)C(C)NC(=O)C(C)NC(=O)C(CC(C)C)N(C)C(=O)C(C(C)C)NC(=O)C(CC(C)C)N(C)C(=O)CN(C)C1=O (stereo not shown) [Compound 83A-s] | 1000 to 100000

same assay, conditions: IC50, given as a range; assay not given

Row | SMILES | IC50 [nM]
13 | CCC1NC(=O)C(C2OC(OCc3cccc(S(=O)(=O)NCC(C)C)c3)CC2C)N(C)C(=O)C(C(C)C)N(C)C(=O)C(CC(C)C)N(C)C(=O)C(CC(C)C)N(C)C(=O)C(C)NC(=O)C(C)NC(=O)C(CC(C)C)N(C)C(=O)C(C(C)C)NC(=O)C(CC(C)C)N(C)C(=O)CN(C)C1=O [Compound 76A, [2-((2R,3R)-5-(3-(N-isobutylsulfamoyl)benzyloxy)-3-methyltetrahydrofuran-2-yl)-2-(methylamino)acetic acid]^1-cyclosporin A] | 1000 to 10000
14 | CCC1NC(=O)C(C2OC(OCc3ccc(-n4cccn4)cc3)CC2C)N(C)C(=O)C(C(C)C)N(C)C(=O)C(CC(C)C)N(C)C(=O)C(CC(C)C)N(C)C(=O)C(C)NC(=O)C(C)NC(=O)C(CC(C)C)N(C)C(=O)C(C(C)C)NC(=O)C(CC(C)C)N(C)C(=O)CN(C)C1=O [Compound 77A, [2-((2R,3R)-5-(4-(1H-pyrazol-1-yl)benzyloxy)-3-methyltetrahydrofuran-2-yl)-2-(methylamino)acetic acid]^1-cyclosporin A] | 1000 to 10000

same assay, conditions: given as a range, marked * (asterisk not explained)

Row | SMILES | IC50 [nM]
15 | CCC1NC(=O)C(C2OC(Oc3cc(OC)cc(OCC4CCN(C)CC4)c3)CC2C)N(C)C(=O)C(C(C)C)N(C)C(=O)C(CC(C)C)N(C)C(=O)C(CC(C)C)N(C)C(=O)C(C)NC(=O)C(C)NC(=O)C(CC(C)C)N(C)C(=O)C(C(C)C)NC(=O)C(CC(C)C)N(C)C(=O)CN(C)C1=O (stereo not shown) [Compound 70-o] | 1000 to 100000
16 | CCC1NC(=O)C(C2OC(Sc3cc(OC)cc(OCC4CCN(C)CC4)c3)CC2C)N(C)C(=O)C(C(C)C)N(C)C(=O)C(CC(C)C)N(C)C(=O)C(CC(C)C)N(C)C(=O)C(C)NC(=O)C(C)NC(=O)C(CC(C)C)N(C)C(=O)C(C(C)C)NC(=O)C(CC(C)C)N(C)C(=O)CN(C)C1=O (stereo not shown) [Compound 70] | 1000 to 100000
17 | CCC1NC(=O)C(C2OC(Oc3cc(Cl)cc(OCC4CCN(C)CC4)c3)CC2C)N(C)C(=O)C(C(C)C)N(C)C(=O)C(CC(C)C)N(C)C(=O)C(CC(C)C)N(C)C(=O)C(C)NC(=O)C(C)NC(=O)C(CC(C)C)N(C)C(=O)C(C(C)C)NC(=O)C(CC(C)C)N(C)C(=O)CN(C)C1=O (stereo not shown) [Compound 71-o] | 1000 to 100000
18 | CCC1NC(=O)C(C2OC(Sc3cc(Cl)cc(OCC4CCN(C)CC4)c3)CC2C)N(C)C(=O)C(C(C)C)N(C)C(=O)C(CC(C)C)N(C)C(=O)C(CC(C)C)N(C)C(=O)C(C)NC(=O)C(C)NC(=O)C(CC(C)C)N(C)C(=O)C(C(C)C)NC(=O)C(CC(C)C)N(C)C(=O)CN(C)C1=O (stereo not shown) [Compound 71] | 1000 to 100000
19 | CCC1NC(=O)C(C2OC(Oc3cc(OCCOC)cc(OCCOC)c3)CC2C)N(C)C(=O)C(C(C)C)N(C)C(=O)C(CC(C)C)N(C)C(=O)C(CC(C)C)N(C)C(=O)C(C)NC(=O)C(C)NC(=O)C(CC(C)C)N(C)C(=O)C(C(C)C)NC(=O)C(CC(C)C)N(C)C(=O)CN(C)C1=O (stereo not shown) [Compound 73-o] | 1000 to 100000
20 | CCC1NC(=O)C(C2OC(Sc3cc(OCCOC)cc(OCCOC)c3)CC2C)N(C)C(=O)C(C(C)C)N(C)C(=O)C(CC(C)C)N(C)C(=O)C(CC(C)C)N(C)C(=O)C(C)NC(=O)C(C)NC(=O)C(CC(C)C)N(C)C(=O)C(C(C)C)NC(=O)C(CC(C)C)N(C)C(=O)CN(C)C1=O (stereo not shown) [Compound 73] | 1000 to 100000

same assay, conditions: given as a range; assay not given

Row | SMILES | IC50 [nM]
21 | CCC1NC(=O)C(C2OC(OCc3ccccc3)CC2C)N(C)C(=O)C(C(C)C)N(C)C(=O)C(CC(C)C)N(C)C(=O)C(CC(C)C)N(C)C(=O)C(C)NC(=O)C(C)NC(=O)C(CC(C)C)N(C)C(=O)C(C(C)C)NC(=O)C(CC(C)C)N(C)C(=O)CN(C)C1=O [Compound 74A, [2-((2R,3R)-5-(benzyloxy)-3-methyltetrahydrofuran-2-yl)-2-(methylamino)acetic acid]^1-cyclosporin A] | 1 to 1000
22 | CCC1NC(=O)C(C2OC(OCc3cccc(S(=O)(=O)OCC(C)C)c3)CC2C)N(C)C(=O)C(C(C)C)N(C)C(=O)C(CC(C)C)N(C)C(=O)C(CC(C)C)N(C)C(=O)C(C)NC(=O)C(C)NC(=O)C(CC(C)C)N(C)C(=O)C(C(C)C)NC(=O)C(CC(C)C)N(C)C(=O)CN(C)C1=O [Compound 75A, [2-((2R,3R)-5-(3-(isobutoxysulfonyl)benzyloxy)-3-methyltetrahydrofuran-2-yl)-2-(methylamino)acetic acid]^1-cyclosporin A] | 1 to 1000
23 | CCC1NC(=O)C(C2OC(OC(c3ccccc3)c3ccccc3)CC2C)N(C)C(=O)C(C(C)C)N(C)C(=O)C(CC(C)C)N(C)C(=O)C(CC(C)C)N(C)C(=O)C(C)NC(=O)C(C)NC(=O)C(CC(C)C)N(C)C(=O)C(C(C)C)NC(=O)C(CC(C)C)N(C)C(=O)CN(C)C1=O [Compound 80A, [2-((2R,3R)-3-methyl-5-(benzhydryloxy)tetrahydrofuran-2-yl)-2-(methylamino)acetic acid]^1-cyclosporin A] | 1 to 1000
24 | CCC1NC(=O)C(C2OC(OCc3cccc(OC)c3)CC2C)N(C)C(=O)C(C(C)C)N(C)C(=O)C(CC(C)C)N(C)C(=O)C(CC(C)C)N(C)C(=O)C(C)NC(=O)C(C)NC(=O)C(CC(C)C)N(C)C(=O)C(C(C)C)NC(=O)C(CC(C)C)N(C)C(=O)CN(C)C1=O [Compound 81A, [2-((2R,3R)-5-(3-methoxybenzyloxy)-3-methyltetrahydrofuran-2-yl)-2-(methylamino)acetic acid]^1-cyclosporin A] | 1 to 1000
25 | CCC1NC(=O)C(C2OC(OCc3ccc(OC)cc3)CC2C)N(C)C(=O)C(C(C)C)N(C)C(=O)C(CC(C)C)N(C)C(=O)C(CC(C)C)N(C)C(=O)C(C)NC(=O)C(C)NC(=O)C(CC(C)C)N(C)C(=O)C(C(C)C)NC(=O)C(CC(C)C)N(C)C(=O)CN(C)C1=O [Compound 83A, [2-((2R,3R)-5-(4-methoxybenzyloxy)-3-methyltetrahydrofuran-2-yl)-2-(methylamino)acetic acid]^1-cyclosporin A] | 1 to 1000
